Laboratory results published in US9956199B2, “Chromane-like cyclic prenylflavonoids for the medical intervention in neurological disorders” (priority 2011, dated 2018).
Entries after “also recorded” stand apart in the source; their conditions may differ.

What was measured:
MEF E16 cells = test: immunocytochemical staining for DCX and Map2ab in MEF cultures (neuronal differentiation); assay type: cell-based, mouse; conditions: 7 days; for number of DCX positive cells / number of DCX/Map2ab double positive cells: Neurobasal plus 1% FCS, 10 μM; for number of DCX positive cells: FIG. 3A; for number of DCX/Map2ab double positive cells: FIG. 3B
Procedure: Following the results from the Luciferase assay described in Example 17, the inventors examined the ability of compounds according to the invention and reference compounds to promote differentiation of MEF E16 cells, using immunocytochemical staining with DCX and Map2ab antibodies.
Compound 1a at 10 and 100 μM was analyzed for its effect on the expression of the neuronal specific markers DCX and Map2ab using primary fetal mouse brain derived cells stimulated in DMEM-KO media.
Mouse embryonic day 16 forebrain cells were prepared as described in Example 17. Before seeding the cells, glass-coverslips were coated and prepared. Glass-coverslips (13 mm) (Menzel GmbH, Braunschweig, Germany) were incubated in 1 M HCl at 65° C. overnight and stored in isopropanol until further use. Coverslips were put into 24-well test plates and air-dried. Subsequently coverslips were incubated for 1 h with 100 μg/ml Poly-L-ornithin solution at 37° C. After washing three times with sterile water coverslips were incubated with 5 μg/ml Laminin solution for 2 h. Immediately after removal of the Laminin solution cells were seeded (40.000 cells/well) in DMEM-KO plus supplement or in NB-B27 plus 1% FCS medium. One day later, cells had attached to the substrate. Cells were stimulated with the above-mentioned substances (in DMEM-KO plus supplement medium: 10 μM and 100 μM; in NB-B27 plus 1% FCS medium: 10 μM) for 3 or 7 days. In the 7 day group, medium including the substances was replaced after three days. Cultures were maintained at 37° C. in a humidified incubator with 5% CO2.
Cells were fixed with phosphate-buffered 4% paraformaldehyde (Sigma-Aldrich, Taufkirchen, Germany). […] The specimens were incubated overnight at 4° C. with the primary antibodies at the following dilutions in FSGB: rabbit anti Doublecortin (DCX) 1:500 (NEB, Frankfurt, Germany) and mouse anti-Map 2a+2b 1:400 (Sigma-Aldrich, Taufkirchen, Germany). After washing three times with FSGB, cells were incubated with the species-specific secondary antibodies, which were conjugated to fluorochromes, for 2 hours in the dark at room temperature. To remove unbound secondary antibodies, cells were washed again with PBS. Nuclear counterstaining was performed with 4′,6′-diamidino-2-phenylindole dihydrochloride hydrate (DAPI) at […] (Sigma Aldrich, Taufkirchen, Germany). Finally, cells were washed again three times with PBS and mounted on microscope slides using Prolong Antifade reagent (Invitrogen, Oreg., USA).
The immunostainings were examined using Olympus IX81 inverted research microscope and the software Volocity 5.3.1. To quantify the number of cells, five indiscriminately chosen visual fields per coverslip were selected under a focus of 40 times. The total number of cells (DAPI positive cells), the number of DCX positive, Map2ab positive, and DCX/Map2ab double positive cells was determined.

PC12 cells [1] = test: PC12 cobalt-chloride stress test, Caspase 3/7 activation; assay type: cell-based, rat; conditions: CoCl2 300 μM, 24 hours; compounds 10 μM, NGF 50 ng/ml; FIG. 7A
Procedure: (§1) For the neuroprotection assay PC12 cells were stressed with cobalt chloride 300 μM for 24 hours and the activity of Caspase 3/7 and LDH release were measured. NGF 50 ng/ml was used as a positive control for Caspase 3/7 activity and NGF 100 ng/ml was used as a positive control for LDH release.
(§2) For the PC12-CoCl2-Assay PC12 cells were used (ATCC: CRL-1721 ™). These cells were growing in RPMI supplemented with 10% Horse Serum (heat inactivated) (Sigma Aldrich, Taufkirchen, Germany), 5% Fetal Bovine Serum (Lonza, Wuppertal, Germany), 2.5% Penicillin/Streptomycin and Glutamine (PAA, Pasching, Austria) as adherent cultures when the plates are coated with Poly-L-ornithine ([…] in water) for at least one hour at 37° C. For passaging PC12-cells were resuspended with Accutase (PAA, Pasching, Austria) for 10 minutes at 37° C. once a week.
(§3) For all experiments cells were plated (quadruplicates) on Poly-L-ornithine-coated 96-well plates at a density of 10^4 cells per well. For Caspase 3/7-measurement cells were seeded in a white 96-well-plate to detect luminescence. As positive-control for neuroprotection Nerve Growth Factor (NGF) (50 ng/ml and 100 ng/ml) was used. To induce hypoxia CoCl2 (300 μM) was added to the cells after 20-24 hours. The control-treatment was compound 1a (ENDF1), compound 1b (ENDF3), compound 3a (ENDF2), ENDF4 or Osajin in the concentrations 1 μM and 10 μM in proliferation-media without CoCl2.
For Caspase 3/7-activation Caspase 3/7 substrate was added to the cells in an equal amount 22 hours after stimulation. Plates are incubated for 2 hours at room temperature in the dark, luminescence was measured 24 hours after stimulation and the blank-values are subtracted.

PC12 cells [2] = test: PC12 cobalt-chloride stress test, LDH release; assay type: cell-based, rat; conditions: CoCl2 300 μM, 24 hours; compounds 10 μM, NGF 100 ng/ml; FIG. 7B
Procedure: as §1, §2, §3
For LDH-release cells were centrifuged at 1050 rpm for 5 minutes. After 24 hours of stimulation, the supernatant was mixed in an equal amount with LDH-substrate and incubated in the dark for 30 minutes. Afterwards stop solution was added and absorbance was measured at 490 nm, the blank-values are subtracted.

| Structure (SMILES) | expression of the neuronal specific markers DCX and Map2ab (percentage of positive cells) (MEF E16 cells; DMEM-KO medium, 10 and 100 μM, FIG. 2) | number of DCX positive cells (MEF E16 cells) | number of DCX/Map2ab double positive cells (MEF E16 cells) | protection from CoCl2 induced Caspase 3/7 activity (PC12 cells [1]) | protection from CoCl2 induced LDH release (cell death) (PC12 cells [2]) |
| --- | --- | --- | --- | --- | --- |
| COc1cc2c(c(O)c1C(=O)/C=C/c1ccc(O)cc1)C=CC(C)(C)O2 [Compound 1a, (E)-1-(5-hydroxy-7-methoxy-2,2-dimethyl-2H-chromen-6-yl)-3-(4-hydroxyphenyl)prop-2-en-1-one] | elevated number of DCX positive and of MAP2ab positive cells; also recorded: enhances the expression of the neuronal specific markers DCX and Map2ab | most vigorous effect | highest number of DCX and Map2ab double positive cells | partially protected; also recorded: significant neuroprotective effect similar to NGF | partially protected; also recorded: slightly decrease the LDH release |
| COc1cc2c(c(O)c1C(=O)/C=C/c1ccc(O)cc1)CCC(C)(C)O2 [Compound 1b, (E)-1-(5-hydroxy-7-methoxy-2,2-dimethylchroman-6-yl)-3-(4-hydroxyphenyl)prop-2-en-1-one] | – | strongly enhanced the number of DCX positive cells | highest number of DCX and Map2ab double positive cells | partially protected; also recorded: significant neuroprotective effect similar to NGF | partially protected; also recorded: slightly decrease the LDH release |
